Reference: PMC10004634 (PLOS ONE, 2023)
Read-outs that look alike come from different tables or passages of the source.

Columns and labels:
Assay in all cases: biochemical
Design in all cases: KINOMEscan scanMAX competition binding, DNA-tagged kinases, qPCR read-out, percent control at 300 nM
ABL1-phosphorylated = molecular target: T1, ABL1-phosphorylated (Homo sapiens, UniProt P00519)
T1 construct: phosphorylated

JNK2 = molecular target: T2, JNK2 (Homo sapiens, UniProt P45984)
T2 construct: gene MAPK9
T2 sequence (P45984 whole entry): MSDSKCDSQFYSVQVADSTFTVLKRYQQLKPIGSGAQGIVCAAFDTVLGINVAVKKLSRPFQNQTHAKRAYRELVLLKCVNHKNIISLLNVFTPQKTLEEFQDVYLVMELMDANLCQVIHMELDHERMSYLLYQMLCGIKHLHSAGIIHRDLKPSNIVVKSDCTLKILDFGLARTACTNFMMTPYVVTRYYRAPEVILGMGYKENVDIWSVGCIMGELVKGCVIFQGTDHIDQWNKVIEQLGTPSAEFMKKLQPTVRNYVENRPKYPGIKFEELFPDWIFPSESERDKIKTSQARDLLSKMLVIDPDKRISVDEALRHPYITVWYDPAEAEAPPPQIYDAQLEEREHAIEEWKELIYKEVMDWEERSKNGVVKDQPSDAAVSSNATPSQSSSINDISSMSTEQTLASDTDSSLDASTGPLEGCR

CSNK2A1 = CSNK2A1 (Homo sapiens, UniProt P68400)
Sequence of CSNK2A1 (P68400 whole entry): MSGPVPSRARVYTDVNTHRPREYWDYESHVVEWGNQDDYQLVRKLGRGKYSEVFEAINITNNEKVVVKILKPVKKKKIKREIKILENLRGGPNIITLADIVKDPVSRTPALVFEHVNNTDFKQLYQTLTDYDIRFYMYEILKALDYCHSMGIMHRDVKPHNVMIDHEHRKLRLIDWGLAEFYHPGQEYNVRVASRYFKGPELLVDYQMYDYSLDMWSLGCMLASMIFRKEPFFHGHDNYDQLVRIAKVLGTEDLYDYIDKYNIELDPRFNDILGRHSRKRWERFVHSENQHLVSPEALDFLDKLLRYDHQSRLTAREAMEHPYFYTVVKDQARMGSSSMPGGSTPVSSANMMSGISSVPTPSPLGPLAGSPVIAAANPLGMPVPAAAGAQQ

FLT3(ITD) = FLT3(ITD) (Homo sapiens, UniProt P36888, ITD)
MEK3 = molecular target: T3, MEK3 (Homo sapiens, UniProt P46734)
T3 construct: gene MAP2K3
T3 sequence (P46734 whole entry): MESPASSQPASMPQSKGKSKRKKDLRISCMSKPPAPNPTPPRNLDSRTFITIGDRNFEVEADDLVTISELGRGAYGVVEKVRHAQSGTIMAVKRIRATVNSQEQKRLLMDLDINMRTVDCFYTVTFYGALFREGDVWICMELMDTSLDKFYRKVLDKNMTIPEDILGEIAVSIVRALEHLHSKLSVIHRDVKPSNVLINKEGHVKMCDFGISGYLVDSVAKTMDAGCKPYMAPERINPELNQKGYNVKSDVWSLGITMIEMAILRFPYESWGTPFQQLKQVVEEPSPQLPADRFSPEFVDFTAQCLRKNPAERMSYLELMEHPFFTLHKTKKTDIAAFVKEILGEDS

TAK1 = molecular target: T4, TAK1 (Homo sapiens, UniProt O43318)
T4 construct: gene MAP3K7
T4 sequence (O43318 whole entry): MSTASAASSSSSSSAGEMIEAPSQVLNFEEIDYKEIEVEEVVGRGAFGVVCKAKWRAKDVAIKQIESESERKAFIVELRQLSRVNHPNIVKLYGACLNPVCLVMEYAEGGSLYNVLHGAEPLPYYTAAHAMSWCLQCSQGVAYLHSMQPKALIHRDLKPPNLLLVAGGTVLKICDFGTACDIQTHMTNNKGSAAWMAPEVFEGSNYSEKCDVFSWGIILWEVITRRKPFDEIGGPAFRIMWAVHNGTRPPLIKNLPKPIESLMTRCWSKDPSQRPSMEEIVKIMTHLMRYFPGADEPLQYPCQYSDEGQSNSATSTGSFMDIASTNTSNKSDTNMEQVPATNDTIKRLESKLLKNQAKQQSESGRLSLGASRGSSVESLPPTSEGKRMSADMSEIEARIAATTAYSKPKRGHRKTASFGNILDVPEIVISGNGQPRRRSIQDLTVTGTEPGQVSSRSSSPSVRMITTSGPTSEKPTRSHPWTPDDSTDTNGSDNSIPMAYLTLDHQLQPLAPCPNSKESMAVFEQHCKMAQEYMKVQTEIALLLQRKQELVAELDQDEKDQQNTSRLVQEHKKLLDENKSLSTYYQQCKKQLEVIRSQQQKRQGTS

LIMK2 = LIMK2 (Homo sapiens, UniProt P53671)
DRAK2 = molecular target: T5, DRAK2 (Homo sapiens, UniProt O94768)
T5 construct: gene STK17B
T5 sequence (O94768 whole entry): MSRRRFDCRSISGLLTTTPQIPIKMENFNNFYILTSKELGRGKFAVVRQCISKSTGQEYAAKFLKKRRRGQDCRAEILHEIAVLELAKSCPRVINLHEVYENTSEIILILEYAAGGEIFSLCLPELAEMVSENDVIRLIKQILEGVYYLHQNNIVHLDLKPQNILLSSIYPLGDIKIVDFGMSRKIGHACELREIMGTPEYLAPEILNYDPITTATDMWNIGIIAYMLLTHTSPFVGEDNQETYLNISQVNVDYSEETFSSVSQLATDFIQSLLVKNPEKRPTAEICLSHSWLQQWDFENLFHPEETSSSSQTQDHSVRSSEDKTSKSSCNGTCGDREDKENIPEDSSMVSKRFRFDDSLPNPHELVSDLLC

SRPK1 = SRPK1 (Homo sapiens, UniProt Q96SB4)
AMPK-alpha2 = molecular target: T6, AMPK-alpha2 (Homo sapiens, UniProt P54646)
T6 construct: gene PRKAA2

CDC2L1 = molecular target: T7, CDC2L1 (Homo sapiens, UniProt P21127)
T7 construct: gene CDK11B
T7 sequence (P21127 whole entry): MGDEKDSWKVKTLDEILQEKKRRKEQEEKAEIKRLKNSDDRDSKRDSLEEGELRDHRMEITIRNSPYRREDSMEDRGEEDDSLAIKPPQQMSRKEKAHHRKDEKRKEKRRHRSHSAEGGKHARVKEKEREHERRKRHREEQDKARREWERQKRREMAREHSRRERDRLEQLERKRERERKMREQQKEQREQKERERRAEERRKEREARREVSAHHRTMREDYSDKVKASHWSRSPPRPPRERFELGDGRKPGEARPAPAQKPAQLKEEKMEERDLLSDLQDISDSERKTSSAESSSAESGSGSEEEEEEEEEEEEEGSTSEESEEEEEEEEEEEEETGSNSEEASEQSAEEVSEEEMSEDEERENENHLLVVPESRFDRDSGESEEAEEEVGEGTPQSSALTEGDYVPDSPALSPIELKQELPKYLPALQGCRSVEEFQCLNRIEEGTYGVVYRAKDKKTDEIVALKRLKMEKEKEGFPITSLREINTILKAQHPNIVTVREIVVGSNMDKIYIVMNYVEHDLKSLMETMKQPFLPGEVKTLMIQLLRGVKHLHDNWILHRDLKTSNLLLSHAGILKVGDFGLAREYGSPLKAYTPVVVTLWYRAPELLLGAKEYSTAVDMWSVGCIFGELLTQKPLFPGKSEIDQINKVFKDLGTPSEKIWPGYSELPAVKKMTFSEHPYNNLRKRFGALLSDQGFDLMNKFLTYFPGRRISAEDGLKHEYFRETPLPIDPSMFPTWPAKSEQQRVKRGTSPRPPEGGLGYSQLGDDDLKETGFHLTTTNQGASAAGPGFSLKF

IRAK4 = IRAK4 (Homo sapiens, UniProt Q9NWZ3)
TRPM6 = TRPM6 (Homo sapiens, UniProt Q9BX84)
MYO3A = MYO3A (Homo sapiens, UniProt Q8NEV4)
[1] = molecular target: T8, TYK2(JH2domain-pseudokinase) (Homo sapiens, UniProt P29597)
T8 construct: JH2domain-pseudokinase

PIK3CA = PIK3CA (Homo sapiens, UniProt P42336)
[2] = molecular target: T9, RSK3(Kin.Dom.2-C-terminal) (Homo sapiens, UniProt Q15349)
T9 construct: gene RPS6KA2; Kin.Dom.2-C-terminal

TIE2 = molecular target: T10, TIE2 (Homo sapiens, UniProt Q02763)
T10 construct: gene TEK

MLK2 = molecular target: T11, MLK2 (Homo sapiens, UniProt Q02779)
T11 construct: gene MAP3K10
T11 sequence (Q02779 whole entry): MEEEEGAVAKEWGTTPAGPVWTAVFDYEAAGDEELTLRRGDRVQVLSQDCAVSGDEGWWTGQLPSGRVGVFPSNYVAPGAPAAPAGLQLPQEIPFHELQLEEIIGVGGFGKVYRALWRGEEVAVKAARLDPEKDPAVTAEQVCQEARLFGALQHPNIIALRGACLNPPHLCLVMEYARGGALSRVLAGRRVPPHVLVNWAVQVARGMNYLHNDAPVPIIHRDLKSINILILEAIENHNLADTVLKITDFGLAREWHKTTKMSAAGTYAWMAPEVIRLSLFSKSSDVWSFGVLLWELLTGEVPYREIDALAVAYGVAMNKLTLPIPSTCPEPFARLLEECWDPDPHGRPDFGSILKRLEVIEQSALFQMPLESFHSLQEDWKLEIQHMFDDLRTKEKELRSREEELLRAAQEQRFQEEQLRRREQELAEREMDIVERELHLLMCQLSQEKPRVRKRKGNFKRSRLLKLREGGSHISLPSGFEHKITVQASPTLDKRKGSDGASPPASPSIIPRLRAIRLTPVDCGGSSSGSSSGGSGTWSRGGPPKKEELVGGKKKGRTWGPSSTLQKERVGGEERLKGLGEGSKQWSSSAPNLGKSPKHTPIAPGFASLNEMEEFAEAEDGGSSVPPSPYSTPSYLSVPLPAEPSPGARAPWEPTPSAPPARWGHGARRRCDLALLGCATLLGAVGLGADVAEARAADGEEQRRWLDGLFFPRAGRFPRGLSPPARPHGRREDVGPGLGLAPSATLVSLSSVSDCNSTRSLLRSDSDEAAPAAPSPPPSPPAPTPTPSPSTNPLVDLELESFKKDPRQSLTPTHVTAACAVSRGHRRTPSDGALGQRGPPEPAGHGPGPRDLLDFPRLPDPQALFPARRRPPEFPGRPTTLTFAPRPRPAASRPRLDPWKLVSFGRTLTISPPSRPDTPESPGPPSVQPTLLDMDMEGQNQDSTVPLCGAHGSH

FLT3(D835H) = FLT3(D835H) (Homo sapiens, UniProt P36888, D835H)
DCAMKL3 = molecular target: T12, DCAMKL3 (Homo sapiens, UniProt Q9C098)
T12 construct: gene DCLK3

ACVRL1 = ACVRL1 (Homo sapiens, UniProt P37023)
Sequence of ACVRL1 (P37023 whole entry): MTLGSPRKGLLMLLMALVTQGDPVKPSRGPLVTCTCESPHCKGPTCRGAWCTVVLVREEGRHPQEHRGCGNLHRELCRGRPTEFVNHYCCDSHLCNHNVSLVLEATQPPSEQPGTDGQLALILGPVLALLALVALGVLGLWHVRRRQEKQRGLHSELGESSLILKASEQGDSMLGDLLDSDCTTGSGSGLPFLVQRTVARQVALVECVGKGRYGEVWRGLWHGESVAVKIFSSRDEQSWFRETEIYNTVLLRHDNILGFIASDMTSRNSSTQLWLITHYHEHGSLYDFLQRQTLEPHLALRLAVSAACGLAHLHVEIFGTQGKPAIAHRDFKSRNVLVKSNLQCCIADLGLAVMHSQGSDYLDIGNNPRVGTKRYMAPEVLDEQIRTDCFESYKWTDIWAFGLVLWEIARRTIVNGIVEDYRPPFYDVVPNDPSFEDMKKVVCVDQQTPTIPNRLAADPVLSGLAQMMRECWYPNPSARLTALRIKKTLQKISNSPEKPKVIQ

CLK4 = CLK4 (Homo sapiens, UniProt Q9HAZ1)
Sequence of CLK4 (Q9HAZ1 whole entry): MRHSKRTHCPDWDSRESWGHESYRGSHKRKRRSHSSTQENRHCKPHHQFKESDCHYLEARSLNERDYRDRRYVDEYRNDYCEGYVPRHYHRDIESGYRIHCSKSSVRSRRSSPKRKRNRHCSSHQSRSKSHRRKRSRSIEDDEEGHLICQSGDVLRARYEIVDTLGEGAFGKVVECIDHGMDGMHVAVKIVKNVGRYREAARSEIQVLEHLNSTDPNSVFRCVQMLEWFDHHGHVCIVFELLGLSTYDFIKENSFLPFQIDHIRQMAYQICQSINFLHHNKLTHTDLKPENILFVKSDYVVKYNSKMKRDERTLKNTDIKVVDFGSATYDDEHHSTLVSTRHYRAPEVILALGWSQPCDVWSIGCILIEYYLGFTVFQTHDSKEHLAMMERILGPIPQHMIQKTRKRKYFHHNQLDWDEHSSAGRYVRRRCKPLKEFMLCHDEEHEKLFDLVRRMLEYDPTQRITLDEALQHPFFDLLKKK

[3] = read-out: Percent control / Acalabrutinib
[4] = read-out: Percent control / Ibrutinib
[5] = read-out: Percent control / Tirabrutinib
[6] = read-out: Percent control / Zanubrutinib

`CC#CC(=O)N1CCC[C@H]1c1nc(-c2ccc(C(=O)Nc3ccccn3)cc2)c2c(N)nccn12` [Acalabrutinib] gave a remaining binding at 0.3 µM (ABL1-phosphorylated; [3]) of 95%, a remaining binding at 0.3 µM (JNK2; [3]) of 95% and a remaining binding at 0.3 µM (CSNK2A1; [3]) of 99%. It also gave a remaining binding at 0.3 µM (FLT3(ITD); [3]) of 85%, a remaining binding at 0.3 µM (MEK3; [3]) of 99% and a remaining binding at 0.3 µM (TAK1; [3]) of 86%. It also gave a remaining binding at 0.3 µM (LIMK2; [3]) of 96%, a remaining binding at 0.3 µM (DRAK2; [3]) of 97% and a remaining binding at 0.3 µM (SRPK1; [3]) of 84%. For the same compound, the remaining binding at 0.3 µM (AMPK-alpha2; [3]) was 96%, the remaining binding at 0.3 µM (CDC2L1; [3]) was 93% and the remaining binding at 0.3 µM (IRAK4; [3]) was 97%. The remaining binding at 0.3 µM (TRPM6; [3]) was 96%, the remaining binding at 0.3 µM (MYO3A; [3]) was 75% and the remaining binding at 0.3 µM [1, 3] was 97%. It also gave a remaining binding at 0.3 µM (PIK3CA; [3]) of 97%.
`C=CC(=O)N1CCC[C@@H](n2nc(-c3ccc(Oc4ccccc4)cc3)c3c(N)ncnc32)C1` [Ibrutinib] was tested, and the remaining binding at 0.3 µM (CSNK2A1; [4]) was 90%, the remaining binding at 0.3 µM (MEK3; [4]) was 93% and the remaining binding at 0.3 µM (DRAK2; [4]) was 82%. It also gave a remaining binding at 0.3 µM [2, 4] of 90%, a remaining binding at 0.3 µM (SRPK1; [4]) of 85% and a remaining binding at 0.3 µM (AMPK-alpha2; [4]) of 97%. It also gave a remaining binding at 0.3 µM (TIE2; [4]) of 72%, a remaining binding at 0.3 µM (MLK2; [4]) of 90% and a remaining binding at 0.3 µM (MYO3A; [4]) of 96%. The remaining binding at 0.3 µM (FLT3(D835H); [4]) was 25%.
`CC#CC(=O)N1CC[C@@H](n2c(=O)n(-c3ccc(Oc4ccccc4)cc3)c3c(N)ncnc32)C1` [Tirabrutinib] gave a remaining binding at 0.3 µM (DCAMKL3; [5]) of 99%, a remaining binding at 0.3 µM (FLT3(ITD); [5]) of 82% and a remaining binding at 0.3 µM (ACVRL1; [5]) of 94%. It also gave a remaining binding at 0.3 µM (CLK4; [5]) of 82%, a remaining binding at 0.3 µM (MLK2; [5]) of 77% and a remaining binding at 0.3 µM (FLT3(D835H); [5]) of 95%.
For `C=CC(=O)N1CCC([C@@H]2CCNc3c(C(N)=O)c(-c4ccc(Oc5ccccc5)cc4)nn32)CC1` [Zanubrutinib], the remaining binding at 0.3 µM (ABL1-phosphorylated; [6]) was 77%, the remaining binding at 0.3 µM (JNK2; [6]) was 100% and the remaining binding at 0.3 µM (DCAMKL3; [6]) was 100%. For the same compound, the remaining binding at 0.3 µM (TAK1; [6]) was 83%, the remaining binding at 0.3 µM (LIMK2; [6]) was 92% and the remaining binding at 0.3 µM (ACVRL1; [6]) was 75%. The remaining binding at 0.3 µM [2, 6] was 84%, the remaining binding at 0.3 µM (CDC2L1; [6]) was 90% and the remaining binding at 0.3 µM (TIE2; [6]) was 99%. For the same compound, the remaining binding at 0.3 µM (CLK4; [6]) was 99%, the remaining binding at 0.3 µM (IRAK4; [6]) was 91% and the remaining binding at 0.3 µM (TRPM6; [6]) was 63%. The remaining binding at 0.3 µM [1, 6] was 82% and the remaining binding at 0.3 µM (PIK3CA; [6]) was 57%.
